pIC50: −log10 of the molar value. Converted amounts (≈) assume the structure as drawn.
Tests used:
[1] = target: DNA gyrase subunit A/DNA gyrase subunit B (Mycobacterium tuberculosis (strain ATCC 25618 / H37Rv), UniProt P9WG45+P9WG47); experiment: Inhibition of Mycobacterium tuberculosis H37Rv DNA gyrase A/B expressed in Escherichia coli assessed as reduction in supercoiling of relaxed pBR322 DNA substrate measured after 60 mins by ethidium bromide staining based agarose gel electrophoresis method
Bacillus spizizenii [2] = experiment: Antibacterial activity against Bacillus subtilis ATCC 6633 after 24 hrs by broth dilution method; format: functional
Escherichia coli [3] = experiment: Antibacterial activity against Escherichia coli ATCC 11229 after 24 hrs by broth dilution method; format: functional
Proteus vulgaris [4] = experiment: Antibacterial activity against Proteus vulgaris […] after 24 hrs by broth dilution method; format: functional
Staphylococcus aureus [5] = experiment: Antibacterial activity against Staphylococcus aureus ATCC 6538 after 24 hrs by broth dilution method; format: functional
Proteus vulgaris [6] = experiment: Antibacterial activity against Proteus vulgaris after 24 hrs; format: functional
Proteus vulgaris [7] = experiment: Potency index, ratio of norfloxacin MIC to test compound MIC for Proteus vulgaris; format: functional
[8] = tested on: Mycobacterium tuberculosis; experiment: Antimycobacterial activity against Mycobacterium tuberculosis H37Rv ATCC 27294 after 5 days by microplate alamar blue assay; format: functional; settings: H37Rv ATCC 27294, 120 h
Escherichia coli [9] = experiment: Antibacterial activity against Escherichia coli assessed as zone of inhibition at 50 ug/ml after 3 days by filter paper disc method; format: functional; settings: 72 h, read-out: IZ
Pseudomonas aeruginosa [10] = experiment: Antibacterial activity against Pseudomonas aeruginosa assessed as zone of inhibition at 50 ug/ml after 3 days by filter paper disc method; format: functional; settings: 72 h, read-out: IZ
Pseudomonas aeruginosa [11] = experiment: Antibacterial activity against Pseudomonas aeruginosa by broth dilution method; format: functional
Staphylococcus aureus [12] = experiment: Antibacterial activity against Staphylococcus aureus MTCC 96 assessed as zone of inhibition at 100 ug/ml by disc diffusion method; format: functional; settings: read-out: IZ
Streptococcus pyogenes [13] = experiment: Antibacterial activity against Streptococcus pyogenes MTCC 442 assessed as zone of inhibition at 100 ug/ml by disc diffusion method; format: functional; settings: read-out: IZ
Escherichia coli [14] = experiment: Antibacterial activity against Escherichia coli MTCC 443 assessed as zone of inhibition at 100 ug/ml by disc diffusion method; format: functional; settings: read-out: IZ
Pseudomonas aeruginosa [15] = experiment: Antibacterial activity against Pseudomonas aeruginosa MTCC 424 assessed as zone of inhibition at 100 ug/ml by disc diffusion method; format: functional; settings: read-out: IZ
Staphylococcus aureus [16] = experiment: Antibacterial activity against Staphylococcus aureus MTCC 96 assessed as zone of inhibition at 25 ug/ml by agar well diffusion method; format: functional; settings: read-out: IZ
Streptococcus pyogenes [17] = experiment: Antibacterial activity against Streptococcus pyogenes MTCC 442 assessed as zone of inhibition at 25 ug/ml by agar well diffusion method; format: functional; settings: read-out: IZ
Escherichia coli [18] = experiment: Antibacterial activity against Escherichia coli MTCC 443 assessed as zone of inhibition at 25 ug/ml by agar well diffusion method; format: functional; settings: read-out: IZ
Pseudomonas aeruginosa [19] = experiment: Antibacterial activity against Pseudomonas aeruginosa MTCC 424 assessed as zone of inhibition at 25 ug/ml by agar well diffusion method; format: functional; settings: read-out: IZ
Staphylococcus aureus [20] = experiment: Antibacterial activity against Staphylococcus aureus assessed as diameter of inhibition zone at 250 ug/ml after 24 hrs by disc diffusion method; format: functional; settings: read-out: DIZ
Escherichia coli [21] = experiment: Antibacterial activity against Escherichia coli assessed as diameter of inhibition zone at 250 ug/ml after 24 hrs by disc diffusion method; format: functional; settings: read-out: DIZ
Staphylococcus aureus [22] = experiment: Antibacterial activity against Staphylococcus aureus ATCC 29213 after 24 hrs by broth dilution method; format: functional
[23] = tested on: Mycobacterium tuberculosis; experiment: Antitubercular activity against Mycobacterium tuberculosis H37Rv infected in BALB/c mouse assessed as reduction in bacterial load in lungs at 200 mg/kg, po administered once daily via gavage for 5 consecutive days per week for 2 weeks; format: functional
[24] = tested on: Mycobacterium tuberculosis; experiment: Antitubercular activity against Mycobacterium tuberculosis Erdman infected in BALB/c mouse assessed as reduction in bacterial load in lungs at 300 mg/kg, po administered once daily via gavage starting from 27 days post infection for 5 consecutive days per week for 4 weeks; format: functional
[25] = tested on: Mycobacterium tuberculosis; experiment: Antitubercular activity against Mycobacterium tuberculosis Erdman infected in BALB/c mouse assessed as reduction in bacterial load in spleen at 300 mg/kg, po administered once daily via gavage starting from 27 days post infection for 5 consecutive days per week for 4 weeks; format: functional
[26] = tested on: Mycobacterium tuberculosis; experiment: microbe, parasite or virus in culture; settings: MC2 7000, 144 h
Staphylococcus aureus [27] = experiment: Antibacterial activity against Staphylococcus aureus ATCC 25923 after 24 hrs; format: functional; settings: ATCC 25923, 24 h
Bacillus spizizenii [28] = experiment: Antibacterial activity against Bacillus subtilis ATCC 6633 after 24 hrs; format: functional; settings: ATCC 6633, 24 h
Escherichia coli [29] = experiment: Antibacterial activity against Escherichia coli ATCC 25922 after 24 hrs; format: functional; settings: ATCC 25922, 24 h

Q: How did the pIC50 [1] turn out when `O=C(N/N=C1\C(=O)N(c2ccccc2)c2ccccc21)c1cc2ccccc2o1` was run?
A: 3.70 to 4.30

Q: What does the source list for `O=C(c1ccc(Br)cc1)c1oc2ccc(Br)cc2c1/C=C/c1c[nH]c2ccccc12`?
A: MIC (Bacillus spizizenii [2]; ATCC 6633, 24 h): 3.12 to 6.25 µg/mL (≈ 6 to 12 µM); MIC (Escherichia coli [3]; ATCC 11229, 24 h): 3.12 to 6.25 µg/mL (≈ 6 to 12 µM); MIC (Proteus vulgaris [4]): 3.12 to 6.25 µg/mL (≈ 6 to 12 µM); MIC (Staphylococcus aureus [5]; ATCC 6538, 24 h): 3.12 to 6.25 µg/mL (≈ 6 to 12 µM)

Q: How did the MIC (Proteus vulgaris [6]) turn out when `O=C1Nc2c(O)cccc2/C1=N/NC(=O)c1cc2ccccc2o1` was run?
A: 31.2 µg/mL (≈ 97.3 µM)

Q: And the Ratio (Proteus vulgaris [7])?
A: 2

Q: `O=C(O)c1cn(C2CC2)c2cc(N3CCNCC3)c(F)cc2c1=O` [CIPROFLOXACIN] was tested. Which MIC [8] did it give?
A: 3.12 µg/mL (≈ 9.43 µM)

Q: What about the zone of inhibition at 50 µg/mL (Escherichia coli [9]) of the same compound?
A: 25 to 28 mm

Q: What about the zone of inhibition at 50 µg/mL (Pseudomonas aeruginosa [10]) of the same compound?
A: 25 to 28 mm

Q: And the MIC (Pseudomonas aeruginosa [11])?
A: < 4 µg/mL

Q: And the zone of inhibition at 100 µg/mL (Staphylococcus aureus [12])?
A: 21 to 28 mm

Q: What about the zone of inhibition at 100 µg/mL (Streptococcus pyogenes [13]) of the same compound?
A: 21 to 28 mm

Q: What about the zone of inhibition at 100 µg/mL (Escherichia coli [14]) of the same compound?
A: 21 to 28 mm

Q: What about the zone of inhibition at 100 µg/mL (Pseudomonas aeruginosa [15]) of the same compound?
A: 21 to 28 mm

Q: What does the source list for `O=C1Nc2c(cccc2[N+](=O)[O-])/C1=N/NC(=O)c1cc2ccccc2o1`?
A: MIC (Proteus vulgaris [6]): 31.2 µg/mL (≈ 89.2 µM); Ratio (Proteus vulgaris [7]): 2

Q: `COc1cc(OC)c(-c2cc3cc(C(=O)/C=C/c4ccc5occc5c4)cc(OC)c3o2)c(OC)c1` was tested. Which zone of inhibition at 25 µg/mL (Staphylococcus aureus [16]) did it give?
A: 21 to 28 mm

Q: What about the zone of inhibition at 25 µg/mL (Streptococcus pyogenes [17]) of the same compound?
A: 21 to 28 mm

Q: What about the zone of inhibition at 25 µg/mL (Escherichia coli [18]) of the same compound?
A: 21 to 28 mm

Q: And the zone of inhibition at 25 µg/mL (Pseudomonas aeruginosa [19])?
A: 21 to 28 mm

Q: What does the source list for `Cc1ccc(Oc2nc3ccc(C)cc3cc2C2SCC(=O)N2NC(=O)c2cc(-c3cc4ccccc4o3)n(-c3ccccc3)n2)cc1` (configuration not stated)?
A: zone of inhibition at 250 µg/mL (Staphylococcus aureus [20]): 12 to 14 mm; zone of inhibition at 250 µg/mL (Escherichia coli [21]): 12 to 14 mm

Q: What does the source list for `Cc1ccc(S(=O)(=O)Nc2cc(C)cc3cc(COC(=O)NCc4ccccc4)oc23)cc1`?
A: zone of inhibition at 100 µg/mL (Staphylococcus aureus [12]): 11 to 28 mm; zone of inhibition at 100 µg/mL (Streptococcus pyogenes [13]): 11 to 28 mm; zone of inhibition at 100 µg/mL (Escherichia coli [14]): 11 to 28 mm; zone of inhibition at 100 µg/mL (Pseudomonas aeruginosa [15]): 11 to 28 mm

Q: `COc1ccc(-c2nn(-c3ccccc3)cc2/C=C/c2oc3c4c(ccc3c2C(=O)c2ccc(Br)cc2)OCC=C4)cc1` was tested. Which MIC (Bacillus spizizenii [2]; ATCC 6633, 24 h) did it give?
A: 3.1 to 6.3 µg/mL (≈ 4.92 to 10 µM)

Q: And the MIC (Staphylococcus aureus [22]; ATCC 29213, 24 h)?
A: 3.1 to 6.3 µg/mL (≈ 4.92 to 10 µM)

Q: And the MIC (Escherichia coli [3]; ATCC 11229, 24 h)?
A: 3.1 to 6.3 µg/mL (≈ 4.92 to 10 µM)

Q: And the MIC (Proteus vulgaris [4])?
A: 3.1 to 6.3 µg/mL (≈ 4.92 to 10 µM)

Q: How did the MIC (Bacillus spizizenii [2]) turn out when GENTAMICIN was run?
A: 1.62 to 3.12 µg/mL

Q: What about the MIC (Staphylococcus aureus [22]) of the same compound?
A: 1.6 to 3.1 µg/mL

Q: And the MIC (Escherichia coli [3])?
A: 1.62 to 3.12 µg/mL

Q: And the MIC (Proteus vulgaris [4])?
A: 1.62 to 3.12 µg/mL

Q: And the MIC (Staphylococcus aureus [5])?
A: 1.62 to 3.12 µg/mL

Q: For `Cc1c(C(=O)NN)oc2ccccc12`, which MIC [8] is on record?
A: 6.25 µg/mL (≈ 32.9 µM)

Q: With `Cc1ccc2c(c1)/C(=N/NC(=O)c1cc3ccccc3o1)C(=O)N2` as the compound, how does the pIC50 [1] read?
A: 3.70 to 4.30

Q: What does the source list for `CNC(=O)c1c(-c2ccc(O)cc2)oc2ccc(O)c(CN3CCCCC3)c12`?
A: Activity [23]: 6.8 log10CFU; Activity [24]: 0.9 log10CFU; Activity [25]: 2.2 log10CFU; MIC [26]: 0.09 µM (≈ 0.0342 µg/mL)

Q: Which results are given for `Nc1nn2c(-c3ccc(N4CCCCC4)cc3)cc(-c3cc4ccccc4o3)nc2c1/N=N/c1ccccc1`?
A: zone of inhibition at 50 µg/mL (Escherichia coli [9]): 9 to 18 mm; zone of inhibition at 50 µg/mL (Pseudomonas aeruginosa [10]): 9 to 18 mm

Q: `Cc1cc(NC(=O)c2ccccc2)c2oc(COC(=O)NCc3ccccc3)cc2c1` was tested. Which zone of inhibition at 100 µg/mL (Staphylococcus aureus [12]) did it give?
A: 11 to 28 mm

Q: And the zone of inhibition at 100 µg/mL (Streptococcus pyogenes [13])?
A: 11 to 28 mm

Q: What about the zone of inhibition at 100 µg/mL (Escherichia coli [14]) of the same compound?
A: 11 to 28 mm

Q: And the zone of inhibition at 100 µg/mL (Pseudomonas aeruginosa [15])?
A: 11 to 28 mm

Q: What does the source list for `O=C1Nc2ccccc2/C1=N/NC(=O)c1cc2ccccc2o1`?
A: MIC (Staphylococcus aureus [27]): 250 to 500 µg/mL (≈ 819 to 1640 µM); MIC (Bacillus spizizenii [28]): 250 to 500 µg/mL (≈ 819 to 1640 µM); MIC (Escherichia coli [29]): 250 to 500 µg/mL (≈ 819 to 1640 µM); MIC (Proteus vulgaris [6]): 250 to 500 µg/mL (≈ 819 to 1640 µM)
